Reference: US20190365710A1, “METHODS OF TREATING CANCER” (GlaxoSmithKline Intellectual Property Development Limited, priority 2016, published 2019)

Test system: AML cell lines
Test: Methylscan proteomic evaluation of arginine methylation
Type: cell-based
Details: AML cell lines treated with the tool compound vs DMSO
Text: FIG. 3: Methylscan evaluation of cell lines treated with Compound D. Percent of proteins with methylation changes (independent of directionality of change) are categorized by functional group as indicated.
To identify putative PRMT1 substrates, a proteomic approach (Methylscan, Cell Signaling Technology) was utilized to identify proteins with changes in arginine methylation states in response to a tool PRMT1 inhibitor, Compound D. Protein fragments from Compound D- and DSMO-treated cell extracts were immunoprecipitated using methyl arginine specific antibodies (ADMA, MMA, SDMA), and peptides were identified by mass spectrometry.

In the case of `CNCCN(C)Cc1c[nH]nc1[C@H]1CC[C@@]2(CC1)CC(C)(C)CO2` [Compound D], the “proteins with changes in arginine methylation states (Methylscan)” value is reported as “the majority of substrates identified were transcriptional regulators and RNA processing proteins”.
